This is an account of results in the METLIN SMRT retention time set (Domingo-Almenara et al. 2019).

A short description of the data set: gradient 5% acetonitrile 3 min, to 50% in 2 min, to 85% in 15 min, held 3 min, 100 µL/min. The note with it: column: Zorbax Extend-C18 2.1 x 50 mm; eluents: water / acetonitrile, 0.1% formic acid. The essentials:
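Pure standards were run in mixtures of ~100 molecules by HPLC coupled to a quadrupole time-of-flight mass spectrometer. The column was a Zorbax Extend-C18 (2.1 × 50 mm, 1.8 μm) at 100 μL/min, with water and acetonitrile each containing 0.1% formic acid, in positive and negative ionization mode. Dead and dwell volumes were 40 μL and 900 μL. Retention time was taken from computationally picked adduct peaks, each manually inspected, with data collected over 3 months.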
Molecule `Cc1ccc(-n2c(=O)n(CC(=O)NCCCN(C)C)c3cccnc32)cc1` displayed an RP-LC retention time of 593 s. The molecule `CCCNC(=O)N(C1CCOCC1)C1CCN(C(=O)c2cnccn2)CC1` registered an RP-LC retention time of 611 s. `CCc1csc(-c2ccc(N3CCN(C(=O)c4nccc5ccccc45)CC3)nc2)n1` showed an RP-LC retention time of 938 s. The figure for `CNC(=O)[C@@H]1C[C@H](Oc2cccnc2)CN1C(=O)Cn1c(=O)oc2ccccc21` is 582 s; for `CCCNC(=O)C1CCN(c2ccc(SCC(=O)Nc3ccccc3C)nn2)CC1` it is 636 s.

The molecule `O=C(Cc1csc2nc(-c3ccccc3)cn12)NCc1cccc(Br)c1` yielded an RP-LC retention time of 872 s. The molecule `Cc1ccc(CNS(=O)(=O)c2cc3n(c2)CCCNC3=O)cc1` had an RP-LC retention time of 658 s. The figure for `CC(C)=CC1C(C(=O)O)C1(C)C` (stereo not given) is 808 s; for `Cc1ccc(NC(=O)N2CCc3nc(-c4ccc(F)cc4)ncc3C2)c(C)c1` it is 979 s; for `O=C(Nc1cc(F)cc(F)c1)c1c(O)c2cccnc2n(-c2cccc(F)c2)c1=O` it is 1310 s. The figure for `Cc1oc(-c2ccc(Cl)cc2)nc1CN1CCCC(C(=O)NC2CCCCC2C)C1` (stereo not given) is 835 s. With `Cn1cc(C2=CCN(S(=O)(=O)c3ccc(C(C)(C)C)cc3)CC2)c2cccnc21` the figure was 1230 s; with `Cc1cccc(NC(=O)Cn2nc(N3CCOCC3)c3ccccc3c2=O)c1`, 783 s.

For the molecule `COc1ccc(-c2noc(C3CCCN3C(=O)c3c(OC)cccc3OC)n2)cc1` (stereo not given), the RP-LC retention time came to 960 s. The molecule `Cc1cc(-c2csc(S(=O)(=O)NCC3CCN(Cc4ccc(Cl)cc4)CC3)c2)on1` came in with an RP-LC retention time of 733 s. With `CC(C)NC(=O)c1ccc(OCC2CCN(C(=O)Cc3ccccc3F)CC2)cc1` the figure was 870 s; with `COc1cccc(Cc2nc(-c3cccc(-c4ccn[nH]4)c3)no2)c1`, 932 s; with `CCCN1C(=O)C2CCC(=O)N2c2ccc(C(=O)NCCCN3CCCC3=O)cc21` (stereo not given), 631 s. With `COc1ccc(-c2c(C)noc2NC(C)=O)cc1S(=O)(=O)Nc1ccc2c(c1)OCCO2` the figure was 707 s; with `COc1ccc(C2CC(=O)N(c3ccc(C)c(F)c3)C(=O)C2)cc1`, 954 s. The figure for `O=C(c1ccco1)N1CCN(C(=O)c2c3c(nc4ccccc24)C(=O)N(C2CCCCC2)C3)CC1` is 727 s. `COc1cccc(N2CCN(Cc3nc(-c4ccc(N5CCCCC5)nc4)no3)CC2)c1` had an RP-LC retention time of 930 s. With `COc1ccc(S(=O)(=O)N2CCCC(C(=O)Nc3ccc(F)cc3)C2)cc1OC` (stereo not given) the figure was 831 s. Molecule `COCCN(Cc1ccc(C(C)C)cc1)Cc1cc(=O)n2cc(Cl)ccc2n1` showed an RP-LC retention time of 628 s. The figure for `O=C(c1ccc(-c2nccnc2N2CCCC2)cc1)N1CCC(Cc2ccccc2)CC1` is 1110 s. The figure for `CC1CCCN(CCNC(=O)C2CCc3nc(N4CCOCC4)ncc3C2)C1` (stereo not given) is 557 s. In the case of `c1cc(OCc2ccc(CC3CCN(C4CCOCC4)CC3)cc2)ccn1`, the RP-LC retention time turned out to be 548 s. The figure for `CC(C)NC(=O)N1CCN(c2nc3ccccc3n(Cc3ccccc3)c2=O)CC1` is 912 s; for `CCOc1ccc(CNS(=O)(=O)c2cc(C(=O)N3CCCC3)n(C)c2C)cc1` it is 771 s; for `O=C(Nc1ccc(Cl)cc1)N1CCCC1c1nc(-c2ccccc2)no1` (stereo not given) it is 1040 s. With `O=C(NCc1ccc(F)cc1)c1ccc(-c2ccsc2)nc1` the figure was 854 s; with `CC(=O)CC(=O)Nc1ccc(Cl)c(C(F)(F)F)c1`, 831 s; with `O=C(c1cnccn1)N1CCCC1c1nc(-c2cccc(C(F)(F)F)c2)no1` (stereo not given), 798 s. On to `Cc1cc(C)n(-c2cc(N3CCCC(C(=O)Nc4nnc(C)s4)C3)ncn2)n1` (stereo not given), for which the RP-LC retention time is 717 s. In turn, `COC(=O)c1ccc(NC(=O)C(=O)NC(C)Cc2cccs2)cc1` (stereo not given) showed an RP-LC retention time of 900 s. For the molecule `COC(=O)c1ccccc1NC(=O)CCc1c(-c2ccc(Cl)cc2)nc2ccccn12`, the RP-LC retention time was 772 s.

`CCOC(=O)c1ccc(NC(=O)CSc2nnc(-c3cccn(CC)c3=O)n2C)cc1`: the RP-LC retention time is 794 s. The figure for `CCOC(=O)CC(=O)CSc1nc2ccsc2c(=O)n1Cc1ccc(F)cc1` is 903 s; for `CCCn1c(-c2cccc(C(=O)NCc3ccco3)c2)nc2cccnc21` it is 742 s. With `CCCc1cc(N2CCN(C(=O)c3cccc(N(C)C)c3)CC2)nc2nnc(C)n12` the figure was 606 s. With `COCCNC(=O)c1cn2ccc(C)cc2n1` the figure was 616 s; with `COc1ccc(-c2cc(C(F)(F)F)n3ncc(C(=O)NCc4cn(C)nc4C)c3n2)cc1OC`, 780 s.

Consider `CS(=O)(=O)c1ccccc1C(=O)Nc1nnc(-c2cc(Cl)sc2Cl)o1`, for which the RP-LC retention time was found to be 735 s. For `Cc1ccc(-c2noc(Cn3ncn4nc(-c5ccc(F)cc5)cc4c3=O)n2)cc1`, the RP-LC retention time was 817 s. `c1ccc2nc(OCCN3CC3)ccc2c1` displayed an RP-LC retention time of 727 s. `CC(C)CN1C(=O)c2cccn2CC1CNC(=O)c1ccco1` (stereo not given): the RP-LC retention time came out at 672 s. `CN(CC1CCOCC1)C(=O)Nc1ccc(Cl)cc1` had an RP-LC retention time of 772 s. The molecule `O=C(Cn1nc(C(=O)N2CCOCC2)c2ccccc21)Nc1ccc(F)cc1F` displayed an RP-LC retention time of 732 s.

The molecule `CCCCN1C(=O)C(CC(=O)NCCC)Sc2ncccc21` (stereo not given) returned an RP-LC retention time of 750 s. The molecule `CCCS(=O)(=O)c1nc2ccc(NS(=O)(=O)c3cccc4nsnc34)cc2s1` returned an RP-LC retention time of 878 s. The figure for `Cc1nc(Cn2cccc2C(=O)NCc2cccc(Br)c2)no1` is 852 s.

Molecule `CCn1cc(S(=O)(=O)NCc2ccccc2F)c2cccnc21` yielded an RP-LC retention time of 799 s. Take `CC(C)n1ccc(C(=O)Nc2nnc(-c3cc(Cl)sc3Cl)o2)n1`: the RP-LC retention time was found to be 858 s.

In turn, `CC(C)Cn1c(=O)c2ccccc2n(Cc2nc(-c3cccc(C(F)(F)F)c3)no2)c1=O` had an RP-LC retention time of 1030 s. For the molecule `COC(=O)c1ccc2c(=O)n(-c3ccc4c(c3)OCO4)c(N3CCN(c4ccccn4)CC3)nc2c1`, the RP-LC retention time amounted to 660 s.

Molecule `O=C(Cn1nc2c(cc1=O)CCCCC2)NCCc1nc(-c2ccccc2)cs1` returned an RP-LC retention time of 843 s.

`CNC(=O)c1ccc(-c2nc3cc(NS(=O)(=O)c4ccc(F)c(Cl)c4)ccc3n2C)cc1` returned an RP-LC retention time of 674 s. Regarding `COc1ccc(N2CCN(c3cc(SCC(=O)Nc4ccc(C#N)cc4)ncn3)CC2)cc1`, the RP-LC retention time came out at 890 s. The figure for `COc1ccc(S(=O)(=O)N2CCN=C2SCc2cccnc2)cc1` is 594 s; for `O=C(COc1ccc(Cl)cc1Cl)N(Cc1ccccn1)Cc1ccco1` it is 830 s; for `COc1ccccc1NC(=O)c1cc(=O)n2c(nc3ccccc32)s1` it is 964 s. With `CCn1cc(S(=O)(=O)NCc2cccc(Cl)c2)c2cccnc21` the figure was 862 s; with `Cc1nnc(N2CCCC(C(=O)NCCC3=CCCCC3)C2)c2nn(-c3ccccc3)c(C)c12` (stereo not given), 803 s. With `O=C(NC1CCCCC1)C1COC2(CCN(C(=O)c3ccco3)CC2)N1C(=O)c1ccccc1` (stereo not given) the figure was 748 s; with `Cc1cccc(C)c1NC(=O)N(C)CC1CCOC1` (stereo not given), 666 s.

The molecule `CC(=O)c1cccc(NC(=O)Cn2c(-c3ccc(Cl)cc3)nc(C)cc2=O)c1` yielded an RP-LC retention time of 1060 s. With `Cc1cc(C)cc(NC(=O)NCc2ccnc(N3CCSCC3)c2)c1` the figure was 660 s; with `Cc1ccccc1OCC(=O)Nc1nnc(C2CC(=O)N(c3ccc(F)cc3)C2)o1` (stereo not given), 738 s. `Cc1nc(C)c(C(=O)NCC2CCCCC(=O)N2)s1` (stereo not given) displayed an RP-LC retention time of 595 s.

As to `CC(NC(=O)c1cccc(NC(=O)c2ccco2)c1)C(=O)N1CCCc2ccccc21` (stereo not given), the RP-LC retention time was determined as 804 s. With `O=S(=O)(c1ccccc1C(F)(F)F)N1CCC2(CCN(c3cccnc3)C2)C1` (stereo not given) the figure was 694 s; with `CN1CCN(C(=O)C2CCN(S(=O)(=O)c3cc(-c4noc(C5CC5)n4)cs3)CC2)CC1`, 643 s; with `CN(C)c1cc(-n2cccn2)ncn1`, 666 s.

The molecule `CCc1nc(OCC(=O)NCc2ccc3c(c2)OCO3)c2ccccc2n1` displayed an RP-LC retention time of 902 s. With `CCOC(=O)c1nc(N2CCN(Cc3ccc4c(c3)OCO4)CC2)c2ccccc2n1` the figure was 739 s. The figure for `Cn1c(N2CCC(C(=O)N3CCN(c4cccc(C(F)(F)F)c4)CC3)CC2)cc(=O)n(C)c1=O` is 814 s; for `CCc1cccc(C)c1Nc1c(-c2ccc(O)c(OC)c2)nc2ncccn12` it is 686 s; for `Cc1ccc(-c2cc3n(n2)C(NCCc2cccs2)CNC3=O)cc1` (stereo not given) it is 739 s. With `CCC(C)CN(CC(=O)N1CCc2sccc2C1COc1ccccc1F)C(=O)COC` (stereo not given) the figure was 958 s; with `O=C(NCCc1ccccc1)c1nnc(-c2ccc(S(=O)(=O)N3CCCCC3)cc2)o1`, 1040 s.
